# Data as given in patent US9918966B2, “Anti-cancer compositions and methods” (The Penn State Research Foundation, priority 2013, dated 2018).
# Where two headings read alike, the source gives them in different places.
# Assays:
# [1] = From the text: Number of mice surviving and changes in body weight after 7 days of drug treatment is scored (Table I).
# [2] = system: FOM103 normal human melanocytes; test: Cell viability, MTS assay; type: cell-based; settings: Melanocyte
# Method: (§1) Cell viability, proliferation, apoptosis and cell cycle analysis: Viability and IC50 (μmol/L) of normal human melanocytes, fibroblast and melanoma cells following treatment with inhibitors are measured using the MTS assay (Promega, Madison, Wis.) described in Sharma A, et al., Clin Cancer Res 2009; 15:1674-85; and Madhunapantula S V, et al., Mol Cancer Ther 2008; 7:1297-308. […] IC50 values for each inhibitor in μmol/L for respective cell lines are measured from three independent experiments using GraphPad Prism version 4.01 (GraphPad Software, La Jolla, Calif.).
# (§2) The number of viable cells is measured using MTS and percentage decrease in viability calculated. IC50 values for each inhibitor in μmol/L for respective cell lines are measured from three independent experiments using GraphPad Prism version 4.01 (GraphPad Software, La Jolla, Calif.).
# [3] = system: FF2441 human fibroblast cells; test: Cell viability, MTS assay; type: cell-based
# Method: as §1, §2
# [4] = system: WM35 radial growth phase melanoma cells; test: Cell viability, MTS assay; type: cell-based; settings: Homo sapiens
# Method: as §1, §2
# [5] = system: WM115 vertical growth phase melanoma cells; test: Cell viability, MTS assay; type: cell-based; settings: Homo sapiens, WM-115
# Method: as §1, §2
# 1205 Lu tumors = type: in vivo, athymic-Foxn1nu nude mice
# Method: (§3) Tumor kinetics are measured by subcutaneous injection of 1×10^6 1205 Lu or UACC 903 cells in 0.2 mL of DMEM supplemented with 10% FBS subcutaneously injected above both left and right rib cages of 3- to 4-wk-old female athymic-Foxn1^nu nude mice (Harlan Sprague Dawley, IN).
# UACC 903 tumors = type: in vivo, athymic-Foxn1nu nude mice
# Method: as §3
# [6] = system: UACC 903 metastatic melanoma cells; test: cells; settings: Homo sapiens
# Method: as §1, §2
# [7] = system: 1205 Lu metastatic melanoma cells; test: cells; settings: Homo sapiens
# Method: as §1, §2
# Caco-2 (Colon) = test: IC50 for killing cancer cells; type: cell-based; settings: Homo sapiens
# From the text: (§4) Therapeutic universality of selenocoxib-1-GSH for killing cancer cells is examined by treating pancreatic (MiaPaca-2), breast (MDA-MB-231), prostate (PC-3) or sarcoma (HT-1080) and colon (Caco2) cell. lines with the drug and establishing the IC50 for each cell line, Table III. Selenocoxib-1-GSH kills the various cancer cell lines at 2-3-fold lower concentrations than normal fibroblast cells.
# MiaPaca-2 (Pancreas) = test: IC50 for killing cancer cells; type: cell-based; settings: Homo sapiens, MIA PaCa-2
# From the text: as §4
# MDA-MB-231 (Breast) = test: IC50 for killing cancer cells; type: cell-based; settings: Homo sapiens
# From the text: as §4
# PC-3 (Prostate) = test: IC50 for killing cancer cells; type: cell-based; settings: Homo sapiens
# From the text: as §4
# HT-1080 (Fibro sarcoma) = test: IC50 for killing cancer cells; type: cell-based; settings: Homo sapiens
# From the text: as §4
# Human recombinant COX-2 = target: T1, Human recombinant COX-2 (Homo sapiens, UniProt P35354); type: biochemical; settings: 0.2, 2.0 and 20 nM; DMSO = 100% activity; FIG. 2C
# T1 construct: purchased Cayman Chemical, Ann Arbor, Mich
# T1 sequence (P35354 18-604): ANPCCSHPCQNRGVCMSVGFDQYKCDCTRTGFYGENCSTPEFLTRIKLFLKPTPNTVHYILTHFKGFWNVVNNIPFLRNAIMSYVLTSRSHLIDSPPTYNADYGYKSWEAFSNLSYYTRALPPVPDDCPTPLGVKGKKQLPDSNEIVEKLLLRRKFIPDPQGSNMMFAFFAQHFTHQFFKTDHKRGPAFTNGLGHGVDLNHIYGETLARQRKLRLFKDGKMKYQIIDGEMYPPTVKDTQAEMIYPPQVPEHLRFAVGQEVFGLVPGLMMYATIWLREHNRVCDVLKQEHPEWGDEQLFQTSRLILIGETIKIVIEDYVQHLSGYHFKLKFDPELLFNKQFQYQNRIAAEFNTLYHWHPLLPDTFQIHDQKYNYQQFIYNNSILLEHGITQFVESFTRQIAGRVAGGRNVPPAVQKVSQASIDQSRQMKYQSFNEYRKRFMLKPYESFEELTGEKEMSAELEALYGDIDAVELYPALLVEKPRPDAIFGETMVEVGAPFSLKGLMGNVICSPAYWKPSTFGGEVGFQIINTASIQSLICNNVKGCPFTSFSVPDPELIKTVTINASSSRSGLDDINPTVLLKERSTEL
# [8] = system: various cancer cell lines; test: Killing of various cancer cell lines compared with normal fibroblast cells; type: cell-based, human; settings: MiaPaca-2, MDA-MB-231, PC-3, HT-1080, Caco2 versus normal fibroblast cells
# From the text: as §4
smiles,measurement,setting,value
"NC(CCC(=O)NC(CS[Se]Cc1cc(-c2ccccc2)n(-c2ccc(S(N)(=O)=O)cc2)n1)C(=O)NCC(=O)O)C(=O)O (stereo not drawn) [Selenocoxib-1-GSH, selenocoxib-1-glutathione]",% of weight loss,[1]; 0.127 μmoles (10 PPM) intraperitoneally daily for seven days,No loss
same,Mortality at Day 7,"[1]; 0.127 μmoles intraperitoneally daily for seven days, 3 mice/group (Selenocoxib-1-GSH: 10 PPM)",0/3
same,% of weight loss,[1]; 0.254 μmoles (20 PPM) intraperitoneally daily for seven days,2.0%
same,Mortality at Day 7,"[1]; 0.254 μmoles (20 PPM) intraperitoneally daily for seven days, 3 mice/group",0/3
same,mortality,"[1]; 0.127 to 0.254, seven days",no mortality
same,weight loss,"[1]; 0.127 to 0.254 moles (equivalent to 5 to 10 ppm of selenium), seven days",~2%
same,IC50,"[2]; FOM103, 24 h",66.3 ± 3 µM
same,IC50,"[2]; FOM103, 48 h",53.4 ± 4.3 µM
same,IC50,"[2]; FOM103, 72 h",41.2 ± 3.2 µM
same,IC50,"[3]; FF2441, 24 h",> 100 µM
same,IC50,"[3]; FF2441, 48 h",75.5 ± 5.6 µM
same,IC50,"[3]; FF2441, 72 h",36.3 ± 5.6 µM
same,IC50,"[4]; WM35, 24 h",52.6 ± 3.8 µM
same,IC50,"[4]; WM35, 48 h",4.1 ± 0.8 µM
same,IC50,"[4]; WM35, 72 h",2.7 ± 0.4 µM
same,IC50,"[5]; WM115, 24 h",30.1 ± 3.3 µM
same,IC50,"[5]; WM115, 48 h",5.8 ± 0.9 µM
same,IC50,"[5]; WM115, 72 h",3.1 ± 0.4 µM
same,day from which a significant decrease in xenograft tumor development is observed,"1205 Lu tumors; 1205 Lu tumors, compared to vehicle DMSO",16 days
same,decrease in tumor volume,"1205 Lu tumors; 1205 Lu, at the end of treatment, compared to controls",≤ 70%
same,reduction of tumor development,"1205 Lu tumors; 1205 Lu, 0.127 μmoles (10 ppm selenium) intraperitoneally on alternate days for 4 weeks, compared to DMSO control",70.5%
same,decrease in tumor volume,"UACC 903 tumors; UACC 903, at the end of treatment, compared to controls",≤ 70%
same,reduction of tumor development,"UACC 903 tumors; UACC 903, 0.127 μmoles (10 ppm selenium) intraperitoneally on alternate days for 4 weeks, compared to DMSO control",52%
same,day from which a significant decrease in xenograft tumor development is observed,"UACC 903 tumors; UACC 903 tumors, compared to vehicle DMSO",22 days
same,IC50,"[6]; UACC-903, 24 h",30.9 ± 2.8 µM
same,IC50,"[6]; UACC-903, 48 h",20.6 ± 1.7 µM
same,IC50,"[6]; UACC-903, 72 h",14.2 ± 1.2 µM
same,cytotoxicity at 12.5 µM,"[6]; UACC-903, 72 h, read-out: decrease in cell viability",40 to 60%
same,IC50,[7]; 24 h,24.6 ± 2.2 µM
same,IC50,[7]; 48 h,17.2 ± 1.6 µM
same,IC50,[7]; 72 h,10.6 ± 2.6 µM
same,cytotoxicity at 12.5 µM,"[7]; 72 h, read-out: decrease in cell viability",40 to 60%
same,IC50,Caco-2 (Colon),16.1 ± 0.87 µM
same,IC50,MiaPaca-2 (Pancreas),13.3 ± 1.01 µM
same,IC50,MDA-MB-231 (Breast),15.4 ± 2.51 µM
same,IC50,PC-3 (Prostate),16.4 ± 2.11 µM
same,IC50,HT-1080 (Fibro sarcoma),9.1 ± 1.89 µM
same,COX-2 inhibitory activity,Human recombinant COX-2,retain COX-2 inhibitory activity
same,lower concentrations killing cancer cell lines than normal fibroblast cells,[8],2-3 fold
